Results published in patent US20250041306A1, “TARGETED PROTEASE DEGRADATION (TED) PLATFORM” (EUBULUS BIOTHERAPEUTICS INC., priority 2021, published 2025).
Where two headings read alike, the source gives them in different places.

Columns and labels:
Assay type in all cases: cell-based
[1] = test system: human gastric carcinoma cells N87; assay: Cell proliferation experiment (Alarm blue), N87
Experimental: (§1) The cells were cultured in conventional ways, and the cells should be passed for at least 2 generations before plating. Cells at the logarithmic growth phase were collected, prepared into single cell suspensions and counted. The concentration of cells was adjusted to desired concentration, and cells were inoculated into a 96-well cell culture plate at 100 μl per well. 100 μL of complete medium of the test compound were added to each well, 2 replicate wells for each concentration were set up, and diluted with a 5-fold gradient, and continued to culture for 72 h. All cells were subjected to EC50 test for corresponding samples.
(§2) The fluorescence intensity of each well was detected using the Alarm blue method, and IC50 was calculated.
(§3) IC50 was calculated according to the following formula:
(§4) [formula] • wherein Min, Max and Slope represent the minimum, maximum and slope respectively.

Human Colon Cancer HT-29 = assay: Cell proliferation experiment (Alarm blue), HT-29; settings: HT-29 cells, 72 h culture, read-out: Anti cell proliferative activity EC50, HT-29
Experimental: as §1, §2, §3, §4

[2] = test system: Human Colon Cancer cells Colo205; assay: Cell proliferation experiment (Alarm blue), Colo205; settings: Colo205 cells, 72 h culture, read-out: Anti cell proliferative activity EC50, Colo205
Experimental: as §1, §2, §3, §4

[3] = test system: Human Small Cell Lung Cancer H69; assay: Cell proliferation experiment (Alarm blue), H69; settings: H69 cells, 72 h culture, read-out: Anti cell proliferative activity EC50, H69
Experimental: as §1, §2, §3, §4

[4] = test system: Human Small Cell Lung Cancer NCI-H82; assay: Cell proliferation experiment (Alarm blue), H82
Experimental: as §1, §2, §3, §4

[5] = N87 cells, 72 h culture, read-out: Anti cell proliferative activity EC50, N87
[6] = H82 cells, 72 h culture, read-out: Anti cell proliferative activity EC50, H82
[7] = Homo sapiens, 72 h, N87 cells, 72 h culture, read-out: Anti cell proliferative activity EC50, N87
[8] = Homo sapiens, NCI-H82, 72 h, H82 cells, 72 h culture, read-out: Anti cell proliferative activity EC50, H82

Q: Which results are given for `CNC(=O)c1ccccc1Nc1nc(Nc2ccc(N3CCN(C(=O)N[C@H]4CC[C@@H](N(CCC#Cc5ccc6c(c5)CN(C5CCC(=O)NC5=O)C6=O)C(=O)OC(C)C(C)SSC[C@H](N)C(=O)N[C@H](Cc5ccccc5)C(=O)N[C@H]5CSSC[C@@H](C(=O)N[C@H](CO)[C@@H](C)O)NC(=O)[C@H]([C@@H](C)O)NC(=O)[C@H](CCCCN)NC(=O)[C@@H](Cc6c[nH]c7ccccc67)NC(=O)[C@H](Cc6ccccc6)NC5=O)CC4)CC3)cc2)ncc1Cl` (stereo partly drawn) [UB-181243]?
A: EC50 [1, 5]: 668 nM; EC50 (Human Colon Cancer HT-29): > 1000 nM; EC50 [2]: 311 nM; EC50 [3]: > 1000 nM; EC50 [4, 6]: 240 nM

Q: Which EC50 [1, 5] does the source give for `CC[C@@H]1C(=O)N(C)c2cnc(Nc3ccc(-c4cn([C@H]5CC[C@@H](N(CCOCCC#Cc6cccc7c6CN(C6CCC(=O)NC6=O)C7=O)C(=O)OC(C)C(C)SSC[C@H](NC(=O)CC[C@H](NC(=O)c6ccc(NCc7cnc8nc(N)[nH]c(=O)c8n7)cc6)C(=O)O)C(=O)N[C@H](Cc6ccccc6)C(=O)N[C@H]6CSSC[C@@H](C(=O)N[C@H](CO)[C@@H](C)O)NC(=O)[C@H]([C@@H](C)O)NC(=O)[C@H](CCCCN)NC(=O)[C@@H](Cc7c[nH]c8ccccc78)NC(=O)[C@H](Cc7ccccc7)NC6=O)CC5)nn4)cc3OC)nc2N1C1CCCC1` (stereo partly drawn) [UB-181268] here?
A: > 1000 nM

Q: And the EC50 (Human Colon Cancer HT-29)?
A: > 1000 nM

Q: And the EC50 [2]?
A: > 1000 nM

Q: What about the EC50 [3] of the same compound?
A: > 1000 nM

Q: What about the EC50 [4, 6] of the same compound?
A: > 1000 nM

Q: With `CNC(=O)c1ccccc1Nc1nc(Nc2ccc(N3CCN(C(=O)N[C@H]4CC[C@@H](N(CCC#Cc5ccc6c(c5)CN(C5CCC(=O)NC5=O)C6=O)C(=O)OCc5ccc(NC(=O)[C@H](CC(N)=O)NC(=O)[C@H](C)NC(=O)[C@H](C)NC(=O)COCCOC)cc5)CC4)CC3)cc2)ncc1Cl` (stereo partly drawn) [UB-181237] as the compound, how does the EC50 ([1]; Homo sapiens, N87 cells, 72 h culture, read-out: Anti cell proliferative activity EC50, N87) read?
A: 308 nM

Q: And the EC50 (Human Colon Cancer HT-29; Homo sapiens)?
A: 902 nM

Q: What about the EC50 ([2]; Homo sapiens, COLO 205) of the same compound?
A: 277 nM

Q: And the EC50 ([3]; Homo sapiens, NCI-H69)?
A: > 1000 nM

Q: And the EC50 ([4]; Homo sapiens, NCI-H82, H82 cells, 72 h culture, read-out: Anti cell proliferative activity EC50, H82)?
A: 141 nM

Q: How did the EC50 [1, 5] turn out when `CNC(=O)c1ccccc1Nc1nc(Nc2ccc(N3CCN(C(=O)NC4CCC(N(CCC#Cc5ccc6c(c5)CN(C5CCC(=O)NC5=O)C6=O)C(=O)OCc5ccc(NC(=O)[C@H](CC(N)=O)NC(=O)[C@H](C)NC(=O)[C@H](C)NC(=O)CCCCCN6C(=O)CC(SC[C@H](NC(=O)CC[C@H](NC(=O)c7ccc(NCc8cnc9nc(N)[nH]c(=O)c9n8)cc7)C(=O)O)C(=O)N[C@H](Cc7ccccc7)C(=O)N[C@H]7CSSC[C@@H](C(=O)N[C@H](CO)[C@@H](C)O)NC(=O)[C@H]([C@@H](C)O)NC(=O)[C@H](CCCCN)NC(=O)[C@@H](Cc8c[nH]c9ccccc89)NC(=O)[C@H](Cc8ccccc8)NC7=O)C6=O)cc5)CC4)CC3)cc2)ncc1Cl` (stereo partly drawn) [UB-181263] was run?
A: > 1000 nM

Q: And the EC50 (Human Colon Cancer HT-29)?
A: > 1000 nM

Q: What about the EC50 [2] of the same compound?
A: 9.1 nM

Q: What about the EC50 [3] of the same compound?
A: 192 nM

Q: And the EC50 [4, 6]?
A: 53 nM

Q: Which results are given for `NC(=O)c1ccccc1Nc1nc(Nc2ccc(N3CCN(C(=O)CNCCC#Cc4ccc5c(c4)CN(C4CCC(=O)NC4=O)C5=O)CC3)cc2)ncc1Cl` (stereo not drawn) [UB-181273]?
A: EC50 [1, 7]: > 1000 nM; EC50 (Human Colon Cancer HT-29; Homo sapiens): 56.2 nM; EC50 ([2]; Homo sapiens, COLO 205, 72 h): 21.4 nM; EC50 ([3]; Homo sapiens, NCI-H69): 375 nM; EC50 [4, 8]: 21.6 nM

Q: Which EC50 [1, 7] does the source give for `NC(=O)c1ccccc1Nc1nc(Nc2ccc(N3CCN(C(=O)NC4CCN(C(=O)CNCCC#Cc5ccc6c(c5)CN(C5CCC(=O)NC5=O)C6=O)CC4)CC3)cc2)ncc1Cl` (stereo not drawn) [UB-181236] here?
A: 92.5 nM

Q: What about the EC50 ([2]; Homo sapiens, COLO 205, 72 h) of the same compound?
A: 146 nM

Q: What about the EC50 ([3]; Homo sapiens, NCI-H69) of the same compound?
A: > 1000 nM

Q: What about the EC50 [4, 8] of the same compound?
A: 603 nM

Q: With `CNC(=O)c1ccccc1Nc1nc(Nc2ccc(N3CCC(NCC#Cc4ccc5c(c4)CN(C4CCC(=O)NC4=O)C5=O)CC3)cc2)ncc1Cl` (stereo not drawn) [UB-181269] as the compound, how does the EC50 [1, 7] read?
A: 28.8 nM

Q: What about the EC50 (Human Colon Cancer HT-29; Homo sapiens) of the same compound?
A: 35.5 nM

Q: What about the EC50 ([2]; Homo sapiens, COLO 205, 72 h) of the same compound?
A: 10.7 nM

Q: And the EC50 ([3]; Homo sapiens, NCI-H69)?
A: > 1000 nM

Q: And the EC50 [4, 8]?
A: 11.6 nM

Q: How did the EC50 [1, 7] turn out when `CNC(=O)c1ccccc1Nc1nc(Nc2ccc(N3CCN(C(=O)CNCCC#Cc4ccc5c(c4)CN(C4CCC(=O)NC4=O)C5=O)CC3)cc2)ncc1Cl` (stereo not drawn) [UB-181272] was run?
A: 23.1 nM

Q: What about the EC50 (Human Colon Cancer HT-29; Homo sapiens) of the same compound?
A: 332 nM

Q: And the EC50 ([2]; Homo sapiens, COLO 205, 72 h)?
A: 21.1 nM

Q: What about the EC50 ([3]; Homo sapiens, NCI-H69) of the same compound?
A: > 1000 nM

Q: And the EC50 [4, 8]?
A: 19.1 nM

Q: For `NC(=O)c1ccccc1Nc1nc(Nc2ccc(N3CCN(C(=O)N[C@H]4C[C@H](NCCC#Cc5ccc6c(c5)CN(C5CCC(=O)NC5=O)C6=O)C4)CC3)cc2)ncc1Cl` (stereo partly drawn) [UB-181261], which EC50 [1, 7] is on record?
A: 23.6 nM

Q: And the EC50 ([2]; Homo sapiens, COLO 205, 72 h)?
A: 24.8 nM

Q: What about the EC50 ([3]; Homo sapiens, NCI-H69) of the same compound?
A: 61.2 nM

Q: What about the EC50 [4, 8] of the same compound?
A: 24.9 nM

Q: How did the EC50 ([1]; 72 h) turn out when `CC[C@H]1C(=O)N(C)c2cnc(Nc3ccc(-c4cn([C@H]5CC[C@@H](N(CCOCCC#Cc6cccc7c6CN(C6CCC(=O)NC6=O)C7=O)C(=O)OCc6ccc(NC(=O)[C@H](CCCNC(N)=O)NC(=O)[C@@H](NC(=O)CCOCCOCCOCCOCCOCCOCCOCCOCCNC(=O)CCN7C(=O)C=CC7=O)C(C)C)cc6)CC5)nn4)cc3OC)nc2N1C1CCCC1` (stereo partly drawn) [UB-181238] was run?
A: > 1000 nM

Q: What about the EC50 ([4]; 72 h) of the same compound?
A: > 1000 nM
